Some test systems named below: KM12 colon; ACHN renal; SK-MEL-28 melanoma; UO-31 renal; HCC-2998 colon; DMS 114 small cell lung; HL-60(TB) leukemia; SK-OV-3 ovarian; DMS 273 small cell lung; BT-549 breast.
Holding throughout (test): NCI-60 cell line screen, 48 h

The record followed here is PubChem BioAssay (NCI).

Where “and” joins values, the source holds several entries; their conditions need not be identical. Identical values can stand only once.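 These data come from cells grown in 96-well plates and exposed to compound for 48 hours at five concentrations. GI50 = concentration required for 50% inhibition of growth. TGI is the concentration that stops growth completely.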 Where only a bound is given, the exact number is not on record here.

In the case of `CCc1ccccc1NC(=O)C1=C(C)NC(C)=C(C(=O)Nc2ccccc2CC)C1c1ccccc1Cl`, the TGI in the test on KM12 colon, in the test with ACHN renal, with SK-MEL-28 melanoma, in the test on UO-31 renal, in the test with HCC-2998 colon and with DMS 114 small cell lung was > 100 µM in each case. For the same molecule, the TGI in the test on HL-60(TB) leukemia and in the test with SK-OV-3 ovarian was > 100 µM throughout.
As for `O/N=C1/C(=C/c2ccc3c(c2)OCO3)CCCC1C(NO)c1ccc2c(c1)OCO2` (stereo not given), the TGI in the test on KM12 colon is 43.6 µM; in the test on ACHN renal, > 100 µM; with DMS 273 small cell lung it was 47.3 µM; with SK-MEL-28 melanoma it was 40.1 µM; in the test with UO-31 renal it was 58.5 µM; in the test with HCC-2998 colon, 55.5 µM. Besides, the TGI came to 60.7 µM in the test with DMS 114 small cell lung, 36.4 µM with HL-60(TB) leukemia and 94 µM in the test on SK-OV-3 ovarian.
For `COc1ccc(/C=N/N=C(\N)NO)cc1O`, the TGI in the test on KM12 colon, in the test on SK-MEL-28 melanoma, with UO-31 renal, with HCC-2998 colon, in the test on DMS 114 small cell lung and in the test on SK-OV-3 ovarian was > 100 µM in each case.
As for `CCOC(=O)C12CCCC1(O)N(NC(=O)OC(C)(C)C)C(C)=C2C(=O)OC` (stereo not given), the TGI in the test with KM12 colon, in the test with ACHN renal, in the test on DMS 273 small cell lung, in the test on UO-31 renal, in the test on HCC-2998 colon and with DMS 114 small cell lung was > 100 µM throughout. Besides, the TGI with HL-60(TB) leukemia and with SK-OV-3 ovarian was > 100 µM each time.
For `O=C1CC(O)CC(=O)C1=C(O)CCCCCCCCCCc1ccccc1` (stereo not given), the TGI in the test with KM12 colon, with ACHN renal, with DMS 273 small cell lung, with SK-MEL-28 melanoma, with UO-31 renal and in the test with HCC-2998 colon was > 100 µM each time. The TGI in the test on DMS 114 small cell lung was > 100 µM; in the test on HL-60(TB) leukemia, 59.2 µM; with SK-OV-3 ovarian it was > 100 µM.
As for `CC1=C(C(=O)Nc2cc(=O)n(C)c(=O)n2C)C(c2ccco2)C(C(=O)Nc2cc(=O)n(C)c(=O)n2C)=C(C)N1`, the TGI with KM12 colon, with ACHN renal, in the test with SK-MEL-28 melanoma, in the test with UO-31 renal, with HCC-2998 colon and in the test on DMS 114 small cell lung was > 100 µM throughout. Also, the TGI in the test on HL-60(TB) leukemia was > 100 µM.
For the molecule `Cc1cc(CC(=O)NCCO)n(CCO)c(=O)c1`, the TGI in the test on KM12 colon, in the test on ACHN renal, with DMS 273 small cell lung, in the test with SK-MEL-28 melanoma, in the test with UO-31 renal and in the test on HCC-2998 colon was > 100 µM throughout. Further, the TGI in the test on DMS 114 small cell lung and with HL-60(TB) leukemia was > 100 µM throughout.
On to `O=C(O)CCN(CCCCN(CCC(=O)O)CCC(=O)O)CCC(=O)O`, for which the TGI with KM12 colon, in the test on ACHN renal, with DMS 273 small cell lung, with SK-MEL-28 melanoma, in the test on HCC-2998 colon and in the test on DMS 114 small cell lung was > 100 µM in each case. The TGI in the test with HL-60(TB) leukemia and with SK-OV-3 ovarian was > 100 µM each time.
In the case of `NC(=O)C(=O)N/N=C1\C(=O)N(c2ccc(Cl)cc2Cl)C(=O)C1C(=O)Nc1ccc(Cl)cc1Cl` (stereo not given), the TGI in the test with KM12 colon, in the test with ACHN renal, in the test with DMS 273 small cell lung, in the test on SK-MEL-28 melanoma, in the test on UO-31 renal and in the test on HCC-2998 colon was > 100 µM in each case. Also, the TGI with DMS 114 small cell lung, in the test with HL-60(TB) leukemia and in the test with SK-OV-3 ovarian was > 100 µM throughout.
As to `COc1ccc(C23C(=O)c4ccccc4N2O[C@H]2C(=O)N(c4ccccc4)C(=O)[C@H]23)cc1` (stereo not given in full), the TGI in the test with KM12 colon, in the test with ACHN renal, in the test on DMS 273 small cell lung, with SK-MEL-28 melanoma, in the test on UO-31 renal and in the test with HCC-2998 colon was > 100 µM each time. Further, the TGI in the test on DMS 114 small cell lung, with HL-60(TB) leukemia and with SK-OV-3 ovarian was > 100 µM each time.
On to `C=C(C)C(O)CCC1(C)C=Cc2c(c(C)cc3c2[nH]c2ccccc23)O1` (stereo not given), for which the GI50 was 2 µM with KM12 colon; 12 µM in the test with UO-31 renal; 2.19 µM in the test with HCC-2998 colon; 4.24 µM with HL-60(TB) leukemia; 12.9 µM in the test on BT-549 breast; 11 µM in the test with SK-OV-3 ovarian. The TGI in the test on KM12 colon was 12.5 µM and 4.32 µM; with ACHN renal it was 25 µM and 16 µM; with SK-MEL-28 melanoma, 25 µM; in the test with UO-31 renal it was 25 µM and 27.3 µM; in the test on HCC-2998 colon, 12.1 µM and 5 µM; in the test with DMS 114 small cell lung it was 25 µM. Moreover, the TGI in the test with HL-60(TB) leukemia is 25 µM and 19.9 µM; in the test on BT-549 breast, 25.5 µM; in the test on SK-OV-3 ovarian, 25 µM and 22.9 µM.
For the molecule `COc1cc(Br)c(C=Nc2cccc3cc(OC)c(OC)cc23)cc1OC`, the TGI with KM12 colon, with ACHN renal, in the test on DMS 273 small cell lung, with SK-MEL-28 melanoma, in the test on UO-31 renal and in the test on HCC-2998 colon was > 100 µM throughout. The results for the TGI with DMS 114 small cell lung, in the test with HL-60(TB) leukemia and in the test on SK-OV-3 ovarian were 50.4 µM, 39.5 µM and > 100 µM, respectively.
Take `O=C(NCCCCNc1cccccc1=O)OCc1ccccc1`: the TGI with KM12 colon, with ACHN renal, with DMS 273 small cell lung, with SK-MEL-28 melanoma, in the test on UO-31 renal and in the test on HCC-2998 colon was > 100 µM in each case. The TGI with DMS 114 small cell lung, in the test with HL-60(TB) leukemia and with SK-OV-3 ovarian was > 100 µM throughout.
With `C[C@]12CC[C@@H]3c4ccc(OC(=O)N(CCCl)CCCl)cc4CC[C@H]3[C@@H]1CC[C@@H]2O`, the GI50 with KM12 colon was 3.1 µM; in the test on ACHN renal, 3.71 µM; in the test on SK-MEL-28 melanoma, 3.75 µM; in the test with UO-31 renal, 3.12 µM; in the test on HCC-2998 colon, 1.56 µM; with HL-60(TB) leukemia, 0.731 µM. The GI50 in the test on BT-549 breast was 4.64 µM; in the test on SK-OV-3 ovarian it was 4.71 µM. For the same molecule, the TGI with KM12 colon is 9.77 µM; with ACHN renal, > 68.5 µM; in the test on DMS 273 small cell lung, 24.2 µM; in the test on UO-31 renal it was 14 µM; with HCC-2998 colon, 5.16 µM; in the test with BT-549 breast it was 17.1 µM. Moreover, the TGI with SK-OV-3 ovarian was 36.8 µM and 7.95 µM.
In the case of `O=C(O)CCC(=O)N1c2ccccc2CC1c1c[nH]c2ccccc12` (stereo not given), the TGI in the test on KM12 colon, in the test with ACHN renal, in the test with DMS 273 small cell lung, with SK-MEL-28 melanoma, in the test with UO-31 renal and in the test with HCC-2998 colon was > 100 µM throughout. Further, the TGI in the test on DMS 114 small cell lung, with HL-60(TB) leukemia and with SK-OV-3 ovarian was > 100 µM in each case.
In the case of `COC1=C(N)C(=O)c2nc(C)ccc2C1=O`, the TGI in the test on KM12 colon amounted to 3.68 µM; in the test with ACHN renal, 3.27 µM; in the test with DMS 273 small cell lung it was 3.84 µM; in the test on SK-MEL-28 melanoma, 3.27 µM; in the test with UO-31 renal, 4 µM; with HCC-2998 colon, 14.5 µM. For the same molecule, the TGI in the test with DMS 114 small cell lung is 3.53 µM; with HL-60(TB) leukemia it was > 26.9 µM; in the test on SK-OV-3 ovarian, 38.4 µM.
`CC1(C)O[C@H]2[C@H](O)C[C@](O)(CO)C[C@H]2O1`: the TGI in the test on KM12 colon, in the test with ACHN renal, in the test on DMS 273 small cell lung, in the test with SK-MEL-28 melanoma, with UO-31 renal and in the test with DMS 114 small cell lung was > 100 µM in each case. The TGI in the test on SK-OV-3 ovarian is > 100 µM.
Take `CCOC(=O)c1nn2c(nc1=O)sc1ccc3ccccc3c12`: the TGI in the test with KM12 colon, in the test with ACHN renal, in the test on DMS 273 small cell lung, with SK-MEL-28 melanoma, with UO-31 renal and in the test with HCC-2998 colon was > 100 µM in each case. The TGI in the test on DMS 114 small cell lung, in the test with HL-60(TB) leukemia and in the test on SK-OV-3 ovarian was > 100 µM in each case.
With `CCN(CC)c1c(C(=O)/C=C/c2ccc(Cl)cc2)c(-c2ccccc2)nn(C)c1=O`, the TGI with ACHN renal was determined as 3.38 µM; with DMS 273 small cell lung, 3.41 µM; in the test with SK-MEL-28 melanoma, 3.02 µM; in the test on UO-31 renal, 3.12 µM; in the test on HCC-2998 colon, 3.24 µM; with DMS 114 small cell lung, 3.76 µM. Also, the TGI with HL-60(TB) leukemia was found to be 6.46 µM; with SK-OV-3 ovarian, 18.7 µM.
On to `O=[N+]([O-])c1ccc(C[P+](c2ccccc2)(c2ccccc2)c2ccccc2)cc1`, for which the TGI in the test with KM12 colon, with ACHN renal, in the test on DMS 273 small cell lung, in the test with SK-MEL-28 melanoma, in the test with UO-31 renal and in the test with HCC-2998 colon was > 100 µM in each case. Further, the TGI with DMS 114 small cell lung, with HL-60(TB) leukemia and with SK-OV-3 ovarian was > 100 µM each time.
For the molecule `O=C1N(C2CCCCC2)CC12CCCCC2`, the TGI in the test with ACHN renal, in the test on DMS 273 small cell lung, in the test on SK-MEL-28 melanoma, with UO-31 renal, in the test with HCC-2998 colon and in the test on DMS 114 small cell lung was > 100 µM throughout. The TGI with HL-60(TB) leukemia and with SK-OV-3 ovarian was > 100 µM throughout.
As for `O=C(O)CCCSC(=O)Nc1ccc(N=Nc2ccccc2)cc1`, the TGI with KM12 colon, in the test with ACHN renal, with DMS 273 small cell lung, in the test with SK-MEL-28 melanoma, with UO-31 renal and in the test with HCC-2998 colon was > 100 µM each time. In addition, in the test with DMS 114 small cell lung, the TGI is > 100 µM.
